From patent publication US20240033232A1, “New use of (R)-B2-agonists in treatment of sepsis and acute respiratory distress syndrome” (priority 2021, published 2024)

Key:
[1] = tested on: inflammatory cells, such as WBC, neutrophils and monocytes; experiment: Systemic inflammatory cells in sepsis; format: in vivo
[2] = tested on: NF-κB and MARK pathways; experiment: NF-κB and MARK pathways activated by LPS in sepsis
[3] = tested on: tissue of lung, heart or kidney; experiment: Pathological examination of organs in sepsis; format: in vivo
[4] = tested on: bronchial hyper-responsiveness induced by LPS sepsis; experiment: Lung function and bronchial hyper-responsiveness in LPS sepsis; format: in vivo; details: for bronchial hyper-responsiveness: induced by LPS sepsis
[5] = tested on: sepsis and sepsis related ARDS; experiment: Overall effect on sepsis and sepsis related ARDS; details: in vivo
[6] = tested on: sepsis by high doses LPS challenge; experiment: LPS sepsis, mortality of mice; format: in vivo; details: for survival: high doses LPS challenge; for mortality: high doses LPS challenge (100% mortality without treatment)
[7] = tested on: INFs, IL-1B, IL-2,4,6,10,12, TNFa and MCP; experiment: Cytokine storm in sepsis, production and release of cytokines
[8] = tested on: inducible NO (iNO) and another ROS; experiment: Inducible NO, ROS and coagulation disorder induced by LPS sepsis
[9] = tested on: macrophages from the peritoneal fluid; experiment: LPS induced proliferation and polarization of macrophages from the peritoneal fluid; format: in vivo; details: for polarized M1 macrophages or M2 macrophages: in comparison of sepsis condition
[10] = tested on: patients with acute respiratory distress Syndrome (ARDS) caused by sepsis; details: cited from earlier work

Row | Structure (SMILES) | increase of inflammatory cells (WBC, neutrophils, monocytes) [1] | NF-κB and MARK pathways (expression or phosphorylation) [2] | pathological changes (inflammatory infiltration, edema, lesions, apoptosis) in lung, heart or kidney [3] | bronchial hyper-responsiveness [4] | effect on sepsis and sepsis related ARDS [5] | survival [6] | mortality [6] | production and release of cytokines [7] | coagulating system disorder such as disseminated intravascular coagulation (DIC) [8] | over production of inducible NO (iNO) and another ROS [8] | polarized M1 macrophages or M2 macrophages [9] | also measured
1 | CC(C)(C)NC[C@@H](O)c1cc(O)cc(O)c1 [(S)-terbutaline] | further increased | further enhanced | further worsened | further worsened | increase the risk of sepsis or worsen sepsis |  |  |  |  |  |  | 
2 | CC(C)(C)NC[C@H](O)c1cc(O)cc(O)c1 [(R)-terbutaline] | significantly inhibite | significantly inhibited | greatly ameliorated and improved | significantly ameliorated | very effective | most of animal survived | greatly reduced | significantly reduced | prevent | significantly prevent and inhibit |  | arterial oxygenation ([4]; sepsis): maintain a normal arterial oxygenation; deterioration of lung function ([4]; sepsis): prevent or restored the deterioration
3 | OCc1cc([C@H](O)CNCCCCCCOCCCCc2ccccc2)ccc1O [(S)-salmeterol] |  |  |  |  |  |  |  |  |  |  | further increased | 
4 | CC(C)(C)NCC(O)c1ccc(O)c(CO)c1 (racemic) [salbutamol] |  |  |  |  |  |  |  |  |  |  |  | ICU mortality and hospital mortality in comparing with placebo [10]: significantly increased; increase of mortality in comparing with placebo ([10]; salbutamol infusion): 11%
5 | CC(C)(C)NC[C@H](O)c1ccc(O)c(CO)c1 [(R)-salbutamol] | significantly inhibite |  | greatly ameliorated and improved |  | very effective | most of animal survived | greatly reduced | significantly reduced | prevent | significantly prevent and inhibit | significant reduction | number of macrophages from the peritoneal fluid ([9]; LPS induced): significantly reduced toward normal level
6 | CC(C)(C)NC[C@@H](O)c1ccc(O)c(CO)c1 [(S)-salbutamol] |  |  | further worsened |  | increase the risk of sepsis or worsen sepsis |  |  |  |  |  |  | 
